Assay results: ChEMBL document CHEMBL5131559, “Discovery and Preclinical Profiling of GSK3839919, a Potent HIV-1 Allosteric Integrase Inhibitor” (ACS Med Chem Lett, 2022)

Experiments:
[1] = system: Human immunodeficiency virus 1; assay: Antiviral activity against recombinant HIV1 NLRep-Rluc harbouring polymorphic T124/T125 integrase infected in human MT-2 cells assessed as inhibition of virus growth in presence of fetal bovine serum by measuring luciferase activity after 4 days; assay type: functional, organism-based; conditions: Human immunodeficiency virus 1, NLRep, MT2, 96 h
[2] = system: Human immunodeficiency virus 1; assay: Antiviral activity against recombinant HIV1 NLRep-Rluc harbouring polymorphic N124/A125 integrase infected in human MT-2 cells assessed as inhibition of virus growth in presence of fetal bovine serum by measuring luciferase activity after 4 days; assay type: functional, organism-based; conditions: Human immunodeficiency virus 1, NLRep, MT2, 96 h
[3] = Cytotoxicity against human MT2 cells; assay type: toxicity, cell-based
[4] = system: Human immunodeficiency virus 1; assay: Antiviral activity against recombinant HIV1 NLRep-Rluc harbouring polymorphic T124/T125 integrase infected in human MT-2 cells assessed as fold change in inhibition of virus growth in presence of fetal bovine serum by measuring luciferase activity after 4 days; assay type: functional; set-up: reference not given here; conditions: time 4 day
[5] = Clearance in Sprague-Dawley rat at 1 mg/kg, iv by LC-MS/MS analysis; assay type: ADME, organism-based; conditions: in vivo
[6] = AUC (0 to infinity) in Sprague-Dawley rat at 5 mg/kg, po by LC-MS/MS analysis; assay type: ADME, organism-based; set-up: time infinity, dose 5 mg/kg, route po; conditions: in vivo
[7] = Oral bioavailability in Sprague-Dawley rat at 5 mg/kg by LC-MS/MS analysis; assay type: ADME, organism-based; conditions: in vivo
[8] = Metabolic stability in human liver microsomes assessed as parent compound disappearance by measuring half life at 0.5 uM in presence of NADPH by LC-MS/MS analysis; assay type: ADME, Microsome
[9] = Toxicity in human Huh-7 cells assessed as fold change in lipid droplet count at 10 uM incubated for 48 hrs by plate reader assay; assay type: cell-based; conditions: huh-7, 48 h
[10] = Toxicity in rat Hepatoma cell line assessed as fold change in lipid droplet count at 10 uM incubated for 48 hrs by plate reader assay; assay type: cell-based
[11] = Clearance in CD-1 mouse at 1 mg/kg, iv by LC-MS/MS analysis; assay type: ADME, organism-based; conditions: in vivo
[12] = Clearance in cynomolgus monkey at 1 mg/kg, iv by LC-MS/MS analysis; assay type: ADME, organism-based, Macaca fascicularis; conditions: in vivo
[13] = system: Human immunodeficiency virus 1; assay: Antiviral activity against recombinant HIV1 NLRep-Rluc harbouring polymorphic A124/T125 integrase infected in human MT-2 cells assessed as inhibition of virus growth in presence of fetal bovine serum by measuring luciferase activity after 4 days; assay type: functional, organism-based; conditions: Human immunodeficiency virus 1, NLRep, MT2, 96 h
[14] = system: Human immunodeficiency virus 1; assay: Antiviral activity against recombinant HIV1 NLRep-Rluc harbouring polymorphic T124/A125 integrase infected in human MT-2 cells assessed as inhibition of virus growth in presence of fetal bovine serum by measuring luciferase activity after 4 days; assay type: functional, organism-based; conditions: Human immunodeficiency virus 1, NLRep, MT2, 96 h
[15] = system: Human immunodeficiency virus 1; assay: Antiviral activity against recombinant HIV1 NLRep-Rluc harbouring polymorphic N124/T125 integrase infected in human MT-2 cells assessed as inhibition of virus growth in presence of fetal bovine serum by measuring luciferase activity after 4 days; assay type: functional, organism-based; conditions: Human immunodeficiency virus 1, NLRep, MT2, 96 h
[16] = system: Human immunodeficiency virus 1; assay: Antiviral activity against recombinant HIV1 NLRep-Rluc harbouring polymorphic A124/A125 integrase infected in human MT-2 cells assessed as inhibition of virus growth in presence of fetal bovine serum by measuring luciferase activity after 4 days; assay type: functional, organism-based; conditions: Human immunodeficiency virus 1, NLRep, MT2, 96 h
[17] = system: Human immunodeficiency virus 1; assay: Antiviral activity against recombinant HIV1 NLRep-Rluc harbouring polymorphic T124/V125 integrase infected in human MT-2 cells assessed as inhibition of virus growth in presence of fetal bovine serum by measuring luciferase activity after 4 days; assay type: functional, organism-based; conditions: Human immunodeficiency virus 1, NLRep, MT2, 96 h
[18] = AUC (0 to infinity) in CD-1 mouse at 5 mg/kg, po by LC-MS/MS analysis; assay type: ADME, organism-based; set-up: time infinity, dose 5 mg/kg, route po; conditions: in vivo
[19] = Oral bioavailability in CD-1 mouse at 5 mg/kg by LC-MS/MS analysis; assay type: ADME, organism-based; conditions: in vivo
[20] = Clearance in Beagle dog at 1 mg/kg, iv by LC-MS/MS analysis; assay type: ADME, organism-based, Canis lupus familiaris; conditions: in vivo
[21] = AUC (0 to infinity) in Beagle dog at 2 mg/kg, po by LC-MS/MS analysis; assay type: ADME, organism-based, Canis lupus familiaris; set-up: time infinity, dose 2 mg/kg, route po; conditions: in vivo
[22] = Oral bioavailability in Beagle dog at 2 mg/kg by LC-MS/MS analysis; assay type: ADME, organism-based, Canis lupus familiaris; conditions: in vivo
[23] = AUC (0 to infinity) in cynomolgus monkey at 2 mg/kg, po by LC-MS/MS analysis; assay type: ADME, organism-based, Macaca fascicularis; set-up: time infinity, dose 2 mg/kg, route po; conditions: in vivo
[24] = Oral bioavailability in cynomolgus monkey at 2 mg/kg by LC-MS/MS analysis; assay type: ADME, organism-based, Macaca fascicularis; conditions: in vivo
[25] = Toxicity in human Huh-7 cells assessed as fold change in lipid droplet count at 20 uM incubated for 48 hrs by plate reader assay; assay type: cell-based; conditions: hepatoma cell line
Huh-7 = assay: Cytotoxicity against human Huh-7 cells at 40 to 80 uM; assay type: toxicity, cell-based; conditions: huh-7, 80 µM, dose 40-80 µM
Hepatoma cell line = assay: Cytotoxicity against rat Hepatoma cell line at 40 to 80 uM; assay type: toxicity, cell-based; conditions: dose 40-80 µM
[26] = Cmax in rat at 50 mg/kg,po qd for 1 week; assay type: ADME, organism-based; set-up: time 1 weeks, dose 50 mg/kg, route po; conditions: in vivo
[27] = AUC in rat at 50 mg/kg,po qd for 1 week; assay type: ADME, organism-based; set-up: dose 50 mg/kg, time 1 weeks, route po; conditions: in vivo, 168 h
[28] = Toxicity in rat assessed as hepatocellular vacuolation at 200 mg/kg,po for 1 week; assay type: organism-based; conditions: in vivo, 168 h, time 1 weeks

Compound: Cc1nc(C)c([C@H](OC(C)(C)C)C(=O)O)c(N2CCC(C)(C)CC2)c1-c1ccc2c(c1)CC[C@H](Cc1ccc(F)cc1)O2
- EC50 [1]: 2.5 nM
- EC50 [2]: 12.8 nM
- CC50 [3]: ≥ 22000 nM
- fold change (FC) [4]: 5

Compound: Cc1nc(C)c([C@H](OC(C)(C)C)C(=O)O)c(N2CCC(C)(C)CC2)c1-c1ccc2c(c1)CCN(Cc1ccc(F)cc1F)C2
- EC50 [1]: 2.5 nM
- EC50 [2]: 5.4 nM
- CC50 [3]: ≥ 24000 nM
- clearance [5]: 20.1 mL/min/kg
- AUC(0-inf) [6]: 7.3 µM·h
- bioavailability [7]: > 100%

Compound: Cc1nc(C)c([C@H](OC(C)(C)C)C(=O)O)c(N2CCC(C)(C)CC2)c1-c1ccc2c(c1)CC[C@@H](Cc1ccc(F)cc1)O2
- EC50 [1]: 1.5 nM
- EC50 [2]: 7.3 nM
- CC50 [3]: ≥ 22000 nM
- fold change (FC) [4]: 5

Compound: Cc1nc(C)c([C@H](OC(C)(C)C)C(=O)O)c(N2CCC(C)(C)CC2)c1-c1ccc2c(c1)CCN(c1ncnc3c1cnn3C)C2
- EC50 [1]: 2.9 nM
- EC50 [2]: 7 nM
- CC50 [3]: ≥ 17000 nM
- clearance [5]: 3.6 mL/min/kg
- AUC(0-inf) [6]: 36.2 µM·h
- bioavailability [7]: 95%

Compound: Cc1nc(C)c([C@H](OC(C)(C)C)C(=O)O)c(N2CCC(C)(C)CC2)c1-c1ccc(OCCc2ccc(F)cc2)nc1
- EC50 [1]: 12.3 nM
- CC50 [3]: ≥ 22000 nM
- fold change (FC) [4]: 7.2
- half-life at 0.5 µM [8]: > 120 min

Compound: Cc1nc(C)c([C@H](OC(C)(C)C)C(=O)O)c(N2CCC(C)(C)CC2)c1-c1ccc2c(c1)CCN(c1nccc(-c3cnccn3)n1)C2
- EC50 [1]: 2.2 nM
- EC50 [2]: 7.9 nM
- CC50 [3]: ≥ 17000 nM
- clearance [5]: 2.1 mL/min/kg
- AUC(0-inf) [6]: 23.7 µM·h
- bioavailability [7]: 38%

Compound: Cc1nc(C)c([C@H](OC(C)(C)C)C(=O)O)c(N2CCC(C)(C)CC2)c1-c1ccc2c(c1)CCN(Cc1cccc(F)c1F)C2
- EC50 [1]: 4.2 nM
- EC50 [2]: 13.6 nM
- CC50 [3]: ≥ 24000 nM
- clearance [5]: 8.1 mL/min/kg
- AUC(0-inf) [6]: 8.4 µM·h
- bioavailability [7]: 50%

Compound: Cc1nc(C)c([C@H](OC(C)(C)C)C(=O)O)c(N2CCC(C)(C)CC2)c1-c1cnc(OCCc2ccc(F)cc2)nc1
- EC50 [1]: 9 nM
- CC50 [3]: ≥ 22000 nM
- fold change (FC) [4]: 4.8
- half-life at 0.5 µM [8]: 22 min

Compound: Cc1cccc(F)c1CN1CCc2cc(-c3c(C)nc(C)c([C@H](OC(C)(C)C)C(=O)O)c3N3CCC(C)(C)CC3)ccc2C1
- EC50 [1]: 5.6 nM
- EC50 [2]: 5.3 nM
- CC50 [3]: ≥ 24000 nM
- clearance [5]: 5.8 mL/min/kg
- AUC(0-inf) [6]: 16 µM·h
- bioavailability [7]: 70%

Compound: Cc1nc(C)c([C@H](OC(C)(C)C)C(=O)O)c(N2CCC(C)(C)CC2)c1-c1ccc2c(c1)CCN(Cc1ccc(F)cc1)C2
- EC50 [1]: 5.9 nM
- CC50 [3]: ≥ 22000 nM
- fold change (FC) [4]: 3.7
- half-life at 0.5 µM [8]: 55 min

Compound: Cc1nc(C)c([C@H](OC(C)(C)C)C(=O)O)c(N2CCC(C)(C)CC2)c1-c1ccc2c(c1)CCN(c1ncnc3c1oc1ccccc13)C2
- EC50 [1]: 1.5 nM
- EC50 [2]: 3.4 nM
- CC50 [3]: ≥ 17000 nM
- clearance [5]: 0.5 mL/min/kg
- AUC(0-inf) [6]: 226 µM·h
- bioavailability [7]: 72%

Compound: Cc1nc(C)c([C@H](OC(C)(C)C)C(=O)O)c(N2CCC(C)(C)CC2)c1C1=CCN(CCCc2ccc(F)cc2)CC1
- EC50 [1]: 7.6 nM
- CC50 [3]: ≥ 22000 nM
- fold change (FC) [4]: 4.8
- half-life at 0.5 µM [8]: 35.5 min

Compound: Cc1ncc(-c2ccc(OCCc3ccc(F)cc3)cc2)c(N2CCC(C)(C)CC2)c1[C@H](OC(C)(C)C)C(=O)O
- fold change (FC) [9]: 2.9
- fold change (FC) [10]: 2.5

Compound: Cc1nc(C)c([C@H](OC(C)(C)C)C(=O)O)c(N2CCC(C)(C)CC2)c1-c1ccc2c(c1)CCN(c1nc3cnccc3s1)C2
- EC50 [1]: 1.5 nM
- EC50 [2]: 2.6 nM
- CC50 [3]: ≥ 17000 nM
- clearance [5]: 14.8 mL/min/kg
- AUC(0-inf) [6]: 10.8 µM·h
- bioavailability [7]: > 100%

Compound: Cc1nc(C)c([C@H](OC(C)(C)C)C(=O)O)c(N2CCC(C)(C)CC2)c1-c1cnn(CCCc2ccc(F)cc2)c1
- EC50 [1]: 8.8 nM
- CC50 [3]: ≥ 22000 nM
- fold change (FC) [4]: 4.8
- half-life at 0.5 µM [8]: 34 min

Compound: Cc1nc(C)c([C@H](OC(C)(C)C)C(=O)O)c(N2CCC(C)(C)CC2)c1-c1ccc2c(c1)CCN(Cc1cccc(F)c1C)C2
- EC50 [1]: 2.6 nM
- EC50 [2]: 8.1 nM
- CC50 [3]: ≥ 24000 nM
- clearance [5]: 4 mL/min/kg
- AUC(0-inf) [6]: 23.2 µM·h
- bioavailability [7]: 64%

Compound: Cc1cccc(Cl)c1CN1CCc2cc(-c3c(C)nc(C)c([C@H](OC(C)(C)C)C(=O)O)c3N3CCC(C)(C)CC3)ccc2C1
- clearance [11]: 3.9 mL/min/kg
- EC50 [1]: 3.5 nM
- EC50 [2]: 7.5 nM
- CC50 [3]: 22500 nM
- clearance [12]: 3.3 mL/min/kg
- clearance [5]: 3.5 mL/min/kg
- AUC(0-inf) [6]: 14.9 µM·h
- bioavailability [7]: 35%
- EC50 [13]: 5.8 nM
- EC50 [14]: 5.4 nM
- EC50 [15]: 5.8 nM
- EC50 [16]: 6.5 nM
- EC50 [17]: 3.2 nM
- AUC(0-inf) [18]: 30.3 µM·h
- bioavailability [19]: 72%
- clearance [20]: 0.5 mL/min/kg
- AUC(0-inf) [21]: 104 µM·h
- bioavailability [22]: 90%
- AUC(0-inf) [23]: 5.4 µM·h
- bioavailability [24]: 58%
- fold change (FC) [9]: 4.1
- fold change (FC) [10]: 3.7
- fold change (FC) [25]: 9.1
- Activity (Huh-7): Toxic
- Activity (Hepatoma cell line): Toxic
- Cmax [26]: 32 µM
- AUC [27]: 335 µM·h
- Activity [28]: Toxic

Compound: Cc1nc(C)c([C@H](OC(C)(C)C)C(=O)O)c(N2CCC(C)(C)CC2)c1-c1ccc(OCCc2ccc(F)cc2)cc1
- EC50 [1]: 1.7 nM
- EC50 [2]: 3.8 nM
- CC50 [3]: ≥ 22000 nM
- half-life at 0.5 µM [8]: > 120 min
- fold change (FC) [9]: 3.7
- fold change (FC) [10]: 4
